Test results published in ChEMBL document CHEMBL2021882, “Aglycone-focused randomization of 2-difluoromethylphenyl-type sialoside suicide substrates for neuraminidases” (Bioorg Med Chem, 2012).

System: Vibrio cholerae
Description: Inhibition of Vibrio cholerae neuraminidase using 4-MU-NANA as substrate preincubated for 15 mins prior addition of substrate measured at 5 mins intervals by fluorimetry relative to control

## COc1ncc(C(F)(F)F)cc1NC(=O)OCc1cn(-c2ccc(O[C@]3(C(=O)O)C[C@H](O)[C@@H](NC(C)=O)[C@H]([C@H](O)[C@H](O)CO)O3)c(C(F)F)c2)nn1
  Kinact: 0.091 min⁻¹
  T1/2: 7.6 min
